Where two headings read alike, the source gives them in different places.
How the values were obtained:
[1] = tested on: CII; conditions: read-out: CII IC50, cited from earlier work
[2] = molecular target: Mitochondrial respiratory complex II (Mus musculus, UniProt Q8K2B3+Q9CQA3+Q9CXV1+Q9CZB0); assay: Complex II inhibition assay; format: biochemical; conditions: for inhibition at 100 µM: read-out: % Inhibition CII (100 μM), 100 μM
[3] = tested on: 22Rv1 prostate cancer cells; conditions: read-out: 22Rv1 IC50, clinical agents; cited from earlier work
[4] = tested on: breast cancer; conditions: 200–300 mg/day, nine patients, stable disease for 4–8 months; cited from earlier work
[5] = tested on: 22Rv1 prostate cancer cells; assay: MTS cytotoxicity assay in 22Rv1 prostate cancer cells; format: cell-based; conditions: for reduction of 22Rv1 cell viability: 100 μM, 48 hr treatment, MTS
[6] = tested on: IRAK1; conditions: 100 μM, KinomeScan; cited from earlier work
[7] = tested on: low tumorigenic human endothelial kidney (HEK293) cells; assay: MTS cytotoxicity assay in HEK293 cells; format: cell-based; conditions: Homo sapiens, HEK293, 72 h, read-out: HEK293 IC50
[8] = tested on: TNBC MDA-MB-468 cells; assay: MTS cytotoxicity assay in MDA-MB-468 cells; format: cell-based; conditions: for SI (Selectivity Index): MDA-MB-468 over HEK293 cells
[9] = tested on: TTK; conditions: 100 μM, KinomeScan; cited from earlier work
[10] = tested on: CII; conditions: read-out: CII IC50; rat heart mitochondria; cited from earlier work
[11] = mouse liver mitochondria, mean ±SD of n = 4

Sequence of Mitochondrial respiratory complex II (Q8K2B3 43-664): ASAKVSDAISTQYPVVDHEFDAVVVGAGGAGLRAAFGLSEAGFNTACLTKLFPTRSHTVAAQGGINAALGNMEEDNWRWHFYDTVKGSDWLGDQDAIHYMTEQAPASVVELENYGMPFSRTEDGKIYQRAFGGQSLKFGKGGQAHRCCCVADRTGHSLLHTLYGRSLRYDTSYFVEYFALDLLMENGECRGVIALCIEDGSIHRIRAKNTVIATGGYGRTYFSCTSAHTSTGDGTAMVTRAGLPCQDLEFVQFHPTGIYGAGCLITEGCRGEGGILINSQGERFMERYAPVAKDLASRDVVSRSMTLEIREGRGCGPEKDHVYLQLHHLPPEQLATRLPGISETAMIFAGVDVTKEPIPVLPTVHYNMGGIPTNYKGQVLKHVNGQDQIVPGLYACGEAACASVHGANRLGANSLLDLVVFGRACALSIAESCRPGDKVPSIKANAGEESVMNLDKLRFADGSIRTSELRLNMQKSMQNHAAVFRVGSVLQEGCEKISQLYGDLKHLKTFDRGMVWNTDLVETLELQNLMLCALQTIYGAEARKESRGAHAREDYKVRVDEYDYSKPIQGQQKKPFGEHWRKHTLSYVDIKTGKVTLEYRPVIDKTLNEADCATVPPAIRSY
Sequence of Mitochondrial respiratory complex II (Q9CQA3 31-282): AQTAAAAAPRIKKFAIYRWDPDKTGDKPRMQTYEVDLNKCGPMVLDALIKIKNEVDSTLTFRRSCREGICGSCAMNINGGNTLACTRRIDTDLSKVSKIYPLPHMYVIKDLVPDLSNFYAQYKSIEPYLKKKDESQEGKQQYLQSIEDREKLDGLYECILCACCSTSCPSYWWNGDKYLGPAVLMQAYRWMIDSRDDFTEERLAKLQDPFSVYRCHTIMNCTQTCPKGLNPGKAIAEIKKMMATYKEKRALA
Sequence of Mitochondrial respiratory complex II (Q9CZB0 30-169): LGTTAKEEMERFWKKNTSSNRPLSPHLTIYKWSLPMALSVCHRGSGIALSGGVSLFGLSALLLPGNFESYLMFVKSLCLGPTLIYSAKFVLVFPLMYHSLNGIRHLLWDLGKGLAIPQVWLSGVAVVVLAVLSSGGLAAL
Sequence of Mitochondrial respiratory complex II (Q9CXV1 57-159): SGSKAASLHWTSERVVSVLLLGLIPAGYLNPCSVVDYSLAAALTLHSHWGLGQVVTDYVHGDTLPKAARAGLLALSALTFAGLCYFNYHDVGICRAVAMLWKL

O=C(O)CC(=O)O [Malonate]
IC50 ([1]; competitive CII inhibitor): 40 µM

COc1[nH]c(=O)c(C(=O)[C@@H](C)C[C@H](C)[C@@H](Cl)CCl)c(O)c1OC [Atpenin A5, atpenin A5]
IC50 ([1]; positive control): 0.0033 µM
IC50 ([1]; ubiquinone binding site (IIQ)): 0.0036 to 0.01 µM
inhibition at 0.1 µM ([2]; read-out: % inhibition of CII at 0.1 μM): 93%

CNC(=O)c1ccc(N2C(=S)N(c3cnc(C#N)c(C(F)(F)F)c3)C(=O)C23CCC3)cc1F [apalutamide]
IC50 [3]: 77 ± 17 µM

CC(O)c1cc(C(=O)N[C@@H](C)Cn2ccc(-c3ccc(C#N)c(Cl)c3)n2)[nH]n1 (some centres unmarked) [darolutamide]
IC50 [3]: 46 ± 10 µM

O=C(CC(=O)C(F)(F)F)c1cccs1 [TFFA, Thenoyltrifluoroacetone]
IC50 ([1]; control compound in CII assays): 30 µM

Cc1c(C)c2c(c(C)c1OC(=O)CCC(=O)O)CC[C@@](C)(CCC[C@H](C)CCC[C@H](C)CCCC(C)C)O2 [α-TOS, α -Tocopheryl succinate]
IC50 [1]: 42 µM

CC1=Nc2ccc(Cl)cc2S(=O)(=O)N1 [Diazoxide, 7-chloro-3-methyl-2H-1,2,4-benzothiadiazine 1,1-dioxide, reference compound]
response rate [4]: 33%
effect to reduce cell viability of prostate cancer cells ([5]; 100 μM up to 72 hours): no effect
kinase inhibition [6]: 9%
IC50 [7]: 547 ± 34.1 µM
effect to reduce cell viability of breast cancer cells ([8]; 100 μM up to 72 hours): no effect
SI (Selectivity Index) [8]: 1.26
IC50 ([8]; read-out: MDA-MB-468 IC50, 72 hours, mean ±SD of n=3): 434 ± 26.2 µM
kinase inhibition [9]: 15%
IC50 [10]: 32 µM
IC50 [2]: 1236 ± 2.5 µM
% Inhibition CII (100 μM) ([2]; 100 μM, mouse liver mitochondria, mean ±SD of n = 4, listed as DZX): no CII inhibition activity
inhibition at 100 µM [2, 11]: 9%

CC(NC1=NS(=O)(=O)c2ccccc2N1)c1ccccc1 (centres unmarked) [Compound 24d, 3-((1-Phenylethyl)amino)-4H-benzo[e][1,2,4]thiadiazine 1,1-dioxide]
reduction of 22Rv1 cell viability [5]: approximately 30%
IC50 [7]: 48.6 ± 1.7 µM
SI (Selectivity Index) [8]: 3.92
inhibition at 100 µM [2, 11]: 0%

COc1ccc(CNC2=NS(=O)(=O)c3cc(Br)ccc3N2)cc1 [Compound 20c, 7-Bromo-3-((4-methoxybenzyl)amino)-4H-benzo[e][1,2,4]thiadiazine 1,1-dioxide]
reduction of 22Rv1 cell viability [5]: 41%
IC50 [7]: 88 ± 12.3 µM
SI (Selectivity Index) [8]: 3.23
IC50 [2]: 79.7 ± 4 µM
inhibition at 100 µM [2, 11]: 64 ± 15.3%
